ChEMBL document CHEMBL3872216, “Modulatory effects of silibinin in various cell signaling pathways against liver disorders and cancer - A comprehensive review” (Eur J Med Chem, 2016)

How the values were obtained:
[1] = Cytotoxicity against human T47D cells assessed as reduction in cell viability after 24 hrs by MTT assay; type: functional, cell-based
[2] = Downregulation of telomerase expression in human T47D cells after 72 hrs in presence of curcumin by SYBR green-dye based RT-PCR analysis; type: functional, cell-based
[3] = Cytotoxicity against human T47D cells assessed as reduction in cell viability after 24 hrs in presence of curcumin by MTT assay; type: functional, cell-based
Cytochrome P450 2C9 = Cytochrome P450 2C9 (Homo sapiens, UniProt P11712); test: Inhibition of CYP2C9 in human liver microsomes using (S)-warfarin as substrate at after 30 mins by LC-MS/MS analysis; type: ADME
Hepatitis C virus = test: Antiviral activity against Hepatitis C virus in liver transplanted patient with established HCV recurrence assessed as reduction in viral load at 20 mg/kg, iv administered for 14 days; type: functional, Hepacivirus hominis
[4] = Cytotoxicity against human ARCaPM cells assessed as cell growth inhibition at 200 uM after 48 hrs by MTT assay relative to control; type: functional; conditions: read-out: GI
[5] = Cytotoxicity against human LNCAP cells assessed as cell growth inhibition at 200 uM after 48 hrs by MTT assay relative to control; type: functional; conditions: read-out: GI
[6] = Cytotoxicity against human PC3 cells assessed as cell growth inhibition at 200 uM after 48 hrs by MTT assay relative to control; type: functional; conditions: PC-3, 48 h, read-out: GI
[7] = Cytotoxicity against human DU145 cells assessed as cell growth inhibition at 200 uM after 48 hrs by MTT assay relative to control; type: functional; conditions: DU-145, 48 h, read-out: GI
[8] = Cytotoxicity against human LoVo cells assessed as reduction in cell growth at 50 to 200 uM after 24 hrs by trypan blue exclusion assay; type: functional
[9] = Antitumor activity against human HT-29 cells xenografted in nude mouse assessed as tumor growth inhibition at 200 mg/kg, po administered 5 days per week for 32 days; type: functional; conditions: HT-29, po, read-out: TGI
[10] = Antitumor activity against wild type B6/129PF2 mouse lung tumor assessed reduction in urethane-induced tumor growth at 742 mg/kg, po administered via gavage for 5 days per week for 18 weeks starting from 8 weeks after urethane injection measured 25 weeks after first urethane injection; type: functional; conditions: B6/129PF2, po, read-out: TGI
[11] = Cytotoxicity against human DU145 cells assessed as cell growth inhibition at 100 uM after 48 hrs in presence of 25 nM doxorubicin by manual cell counting; type: functional, DU-145
[12] = Cytotoxicity against human LNCAP cells assessed as cell growth inhibition at 25 uM after 48 hrs in presence of 15 nM doxorubicin by manual cell counting; type: functional
[13] = Antitumor activity against humanPC3 cells xenografted in nude mouse assessed as tumor growth inhibition at 100 mg/kg, po administered via gavage for 5 days per week for 7 weeks relative to control; type: functional; conditions: Homo sapiens, PC-3, po; read-out: TGI
[14] = Cytotoxicity against human LoVo cells assessed as reduction in cell growth after 24 hrs by trypan blue exclusion assay; type: functional, cell-based

Chain of Cytochrome P450 2C9 (P11712 whole entry): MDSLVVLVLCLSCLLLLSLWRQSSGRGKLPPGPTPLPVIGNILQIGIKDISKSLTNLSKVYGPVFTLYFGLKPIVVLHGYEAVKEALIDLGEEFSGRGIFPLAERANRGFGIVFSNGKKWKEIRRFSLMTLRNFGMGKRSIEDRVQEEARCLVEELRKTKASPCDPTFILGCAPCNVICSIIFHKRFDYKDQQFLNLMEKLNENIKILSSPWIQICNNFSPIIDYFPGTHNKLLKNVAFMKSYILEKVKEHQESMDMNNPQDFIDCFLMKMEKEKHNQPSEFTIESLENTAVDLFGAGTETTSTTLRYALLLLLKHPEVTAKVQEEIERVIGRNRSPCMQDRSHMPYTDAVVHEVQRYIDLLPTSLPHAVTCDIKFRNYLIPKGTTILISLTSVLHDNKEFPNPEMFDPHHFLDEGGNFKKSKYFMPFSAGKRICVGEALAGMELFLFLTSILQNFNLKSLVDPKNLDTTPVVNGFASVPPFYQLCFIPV

Row | SMILES | IC50 [1] | IC50 [2] | IC50 [3] | IC50 (Cytochrome P450 2C9) | Activity (Hepatitis C virus) | inhibition of growth at 200 µM [4] | inhibition of growth at 200 µM [5] | inhibition of growth at 200 µM [6] | inhibition of growth at 200 µM [7] | growth inhibition (GI) [8] | inhibition in vivo at 200 mg/kg [9] | inhibition in vivo at 742 mg/kg [10] | growth inhibition (GI) [11] | growth inhibition (GI) [12] | inhibition in vivo at 100 mg/kg [13] | IC50 [14]
1 | COc1cc(/C=C/C(=O)CC(=O)/C=C/c2ccc(O)c(OC)c2)ccc1O [CURCUMIN] | 30 µM | – | – | – | – | – | – | – | – | – | – | – | – | – | – | –
2 | COc1cc([C@H]2Oc3cc([C@H]4Oc5cc(O)cc(O)c5C(=O)[C@@H]4O)ccc3O[C@@H]2CO)ccc1O [SILYBIN A] | 110 µM | 12 µM | 20 µM | 18 µM | 2.3 | 18.5% | 48.7% | 60% | 73.8% | 30 - 49% | ≤ 48% | 71% | 74 - 87% | 62 - 69% | 40% | 50 to 200 µM
